Two compounds from PMC6727418, “Cyanidin-3-rutinoside acts as a natural inhibitor of intestinal lipid digestion and absorption” (BMC Complementary and Alternative Medicine, 2019) can be followed below.

Molecules are shown by their SMILES.

The target of assay [1] is T1, Porcine pancreatic lipase (Sus scrofa, UniProt P00591).
T1 construct: gene PNLIP
T1 sequence (P00591 1-450): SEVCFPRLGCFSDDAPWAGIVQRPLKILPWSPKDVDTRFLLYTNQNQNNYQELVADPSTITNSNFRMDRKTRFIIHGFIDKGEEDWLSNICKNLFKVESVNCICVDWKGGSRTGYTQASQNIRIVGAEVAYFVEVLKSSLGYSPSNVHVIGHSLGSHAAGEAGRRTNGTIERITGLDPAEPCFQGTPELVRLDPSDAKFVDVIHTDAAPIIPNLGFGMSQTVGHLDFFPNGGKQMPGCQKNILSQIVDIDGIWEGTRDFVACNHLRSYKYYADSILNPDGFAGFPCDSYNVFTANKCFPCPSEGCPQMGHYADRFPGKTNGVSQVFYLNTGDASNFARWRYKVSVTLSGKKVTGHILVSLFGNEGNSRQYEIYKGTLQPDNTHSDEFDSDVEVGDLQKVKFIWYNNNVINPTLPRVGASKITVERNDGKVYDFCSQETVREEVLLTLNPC
Briefly: fluorometric 4-MUO hydrolysis assay; Lineweaver-Burk kinetics (Ki […], Ki'[…]). The format is biochemical.

The target of assay [2] is T2, porcine pancreatic cholesterol esterase (Sus scrofa, UniProt A0A286ZKB1).
T2 construct: gene CEL
T2 sequence (A0A286ZKB1 96-682): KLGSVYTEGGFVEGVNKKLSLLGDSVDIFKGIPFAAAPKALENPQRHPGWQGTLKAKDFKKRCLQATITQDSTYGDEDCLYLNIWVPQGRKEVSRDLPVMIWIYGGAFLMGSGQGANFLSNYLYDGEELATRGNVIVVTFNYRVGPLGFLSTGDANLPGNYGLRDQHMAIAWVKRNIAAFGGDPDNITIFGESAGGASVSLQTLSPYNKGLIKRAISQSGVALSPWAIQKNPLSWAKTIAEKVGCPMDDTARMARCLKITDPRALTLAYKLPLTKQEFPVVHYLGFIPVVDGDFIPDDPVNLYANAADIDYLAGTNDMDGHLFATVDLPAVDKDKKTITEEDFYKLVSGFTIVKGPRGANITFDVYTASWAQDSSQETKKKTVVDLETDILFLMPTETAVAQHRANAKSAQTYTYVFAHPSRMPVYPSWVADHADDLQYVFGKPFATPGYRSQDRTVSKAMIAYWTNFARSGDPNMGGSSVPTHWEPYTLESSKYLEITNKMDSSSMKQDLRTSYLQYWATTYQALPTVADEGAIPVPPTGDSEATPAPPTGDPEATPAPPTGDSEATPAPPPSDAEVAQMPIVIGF
Kind of assay: colorimetric p-NPB hydrolysis assay, percent inhibition at […]. The format is biochemical. The conditions noted are these: read-out: % inhibition at 1 mM.

For the compound `C[C@@H]1O[C@@H](OC[C@H]2O[C@@H](Oc3cc4c(O)cc(O)cc4[o+]c3-c3ccc(O)c(O)c3)[C@H](O)[C@@H](O)[C@@H]2O)[C@H](O)[C@H](O)[C@H]1O` [C3R, Cyanidin-3-rutinoside], the IC50 in assay [1] amounted to 59.4 ± 1.41 µM.

With `O=C(O)c1cc(O)c(O)c(O)c1` [gallic acid], the inhibition at 1000 µM in assay [2] was approximately 39%.

For orientation: IC50 means the concentration needed to halve the response being measured. A lower IC50 goes with inhibition by little substance. By inhibition is commonly meant how much of the control response was suppressed.
